Measurements reported in BindingDB's records for patent US9102669 (Janssen Pharmaceutica, 2015).

Target: T1, Acyl-CoA desaturase 1 (Rattus norvegicus, UniProt P07308)
T1 sequence (P07308 whole entry): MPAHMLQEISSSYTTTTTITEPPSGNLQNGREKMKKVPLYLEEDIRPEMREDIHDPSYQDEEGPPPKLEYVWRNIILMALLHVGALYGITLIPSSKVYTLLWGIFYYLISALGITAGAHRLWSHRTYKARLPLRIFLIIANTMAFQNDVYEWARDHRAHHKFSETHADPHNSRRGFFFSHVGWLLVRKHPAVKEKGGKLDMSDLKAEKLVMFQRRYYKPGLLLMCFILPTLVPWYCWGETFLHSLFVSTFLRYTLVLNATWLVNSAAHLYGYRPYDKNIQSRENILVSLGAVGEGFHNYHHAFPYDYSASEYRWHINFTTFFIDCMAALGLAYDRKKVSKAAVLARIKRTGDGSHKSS
Assay: Enzymatic Assay
Conditions: 25 °C
Protocol: The SCD1 enzymatic assay was done in a volume of 50 μL using 10 μg of RLM (prepared as described above) in a 96-well polypropylene plate (enzyme reaction buffer contains 0.1 M K-Phosphate Buffer, 10 mM ATP, 6 mM MgCl2. 1 mM CoA, 1 mM β-NADH, 1.6 mM L-glutathione, 20 μM Stearoyl-CoA). […] Test compound was then added to the reaction mixture at the selected concentration. After incubation at room temperature for 2 hours, 5 μL 1 N HCl was added to stop the reaction, followed by addition of 25 μL of 10% charcoal. The reaction mixture was then transferred to 96-well Multiscreen plate (Millipore, Cat#MSFCN6B50).

Q: Which IC50 does the source give for Cn1cc(-c2ccc(N3CCC(N4CCc5c(Cl)cc(Cl)cc54)CC3)nn2)cn1 [US9102669, 68] here?
A: > 1000 nM
